Experiment: solvent given as SMILES

## O=C(O)c1ccccc1O
In C1CCOC1
  solvation free energy, 298 K: -10.8 kcal/mol
In C1COCCO1
  solvation free energy, 298 K: -10.3 kcal/mol
In CC(C)(C)O
  solvation free energy, 298 K: -10.4 kcal/mol
In CC(C)=O
  solvation free energy, 298 K: -10.5 kcal/mol
In CC(C)CCO
  solvation free energy, 298 K: -10.1 kcal/mol
In CC(C)CO
  solvation free energy, 298 K: -10.2 kcal/mol
In CC(C)O
  solvation free energy, 298 K: -10.4 kcal/mol
In CCC(C)=O
  solvation free energy, 298 K: -10.4 kcal/mol
In CCC(C)O
  solvation free energy, 298 K: -10.3 kcal/mol
In CCCC(C)O
  solvation free energy, 298 K: -10.3 kcal/mol
In CCCCCCCCO
  solvation free energy, 298 K: -10.2 kcal/mol
In CCCCCCO
  solvation free energy, 298 K: -10.2 kcal/mol
In CCCCCO
  solvation free energy, 298 K: -10.2 kcal/mol
In CCCCO
  solvation free energy, 298 K: -10.3 kcal/mol
In CCCCOC(C)=O
  solvation free energy, 298 K: -10 kcal/mol
In CCCCOCCCC
  solvation free energy, 298 K: -9.58 kcal/mol
In CCCO
  solvation free energy, 298 K: -10.3 kcal/mol
In CCO
  solvation free energy, 298 K: -10.4 kcal/mol
In CCOC(C)=O
  solvation free energy, 298 K: -10.1 kcal/mol
In CCOCC
  solvation free energy, 298 K: -10.2 kcal/mol
In CN(C)C=O
  solvation free energy, 298 K: -10.9 kcal/mol
In CO
  solvation free energy, 298 K: -10.5 kcal/mol
In COC(C)(C)C
  solvation free energy, 298 K: -10.2 kcal/mol
In COC(C)=O
  solvation free energy, 298 K: -10.2 kcal/mol
In Clc1ccccc1
  solvation free energy, 298 K: -8.36 kcal/mol
In NC=O
  solvation free energy, 298 K: -9.97 kcal/mol
In O
  solvation free energy, 298 K: -7.35 kcal/mol
In O=C1CCCCC1
  solvation free energy, 298 K: -10.4 kcal/mol

## FC(F)(Cl)C(F)(F)Cl
In CCCCCCCC(=O)OCC(COC(=O)CCCCCCC)OC(=O)CCCCCCC
  solvation free energy, 298 K: -1.63 kcal/mol
In CCCCCCCCO
  solvation free energy, 298 K: -1.61 kcal/mol
In CN1CCCC1=O
  solvation free energy, 298 K: -1.49 kcal/mol
In CN(C)C=O
  solvation free energy, 298 K: -1.6 kcal/mol
In O
  solvation free energy, 298 K: 2.25 kcal/mol

## Clc1ccc(Cl)c(-c2ccccc2Cl)c1
In CCCCCCCCC=CCCCCCCCC(=O)OCC(COC(=O)CCCCCCCC=CCCCCCCCC)OC(=O)CCCCCCCC=CCCCCCCCC
  solvation free energy, 298 K: -9.75 kcal/mol
In O
  solvation free energy, 298 K: -2.37 kcal/mol

## O=[N+]([O-])c1cccc(Cl)c1
In O
  solvation free energy, 298 K: -4.45 kcal/mol

## CCCCCCO[N+](=O)[O-]
In O
  solvation free energy, 298 K: -1.66 kcal/mol

## Cc1cccc(C)c1
In CC#N
  solvation free energy, 298 K: -5.18 kcal/mol
In CC(C)CC(C)(C)C
  solvation free energy, 298 K: -5.12 kcal/mol
In CC(O)CO
  solvation free energy, 298 K: -4.13 kcal/mol
In CCCCCCC
  solvation free energy, 298 K: -5.39 kcal/mol
In CCCCCCCCCCCCCCCC
  solvation free energy, 298 K: -5.27 kcal/mol
In CCCCCCCCO
  solvation free energy, 298 K: -5.16 kcal/mol
In CCCCOC(C)=O
  solvation free energy, 298 K: -6.06 kcal/mol
In CNC=O
  solvation free energy, 298 K: -4.82 kcal/mol
In COCCO
  solvation free energy, 298 K: -5.09 kcal/mol
In ClCCCl
  solvation free energy, 298 K: -5.98 kcal/mol
In NC=O
  solvation free energy, 298 K: -3.29 kcal/mol
In NCCO
  solvation free energy, 298 K: -3.85 kcal/mol
In O
  solvation free energy, 298 K: -0.78 kcal/mol
In O=CN1CCOCC1
  solvation free energy, 298 K: -5.03 kcal/mol
In OCCO
  solvation free energy, 298 K: -3.42 kcal/mol
In OCCOCCO
  solvation free energy, 298 K: -4.26 kcal/mol
In OCCOCCOCCO
  solvation free energy, 298 K: -4.4 kcal/mol
In c1ccccc1
  solvation free energy, 298 K: -5.99 kcal/mol

Source: the CombiSolv-Exp solvation set (Vermeire and Green 2021)
